# Results published in US20050234066A1, “Alpha substituted carboxylic acids” (Agouron Pharmaceuticals, Inc., priority 2004, published 2005).
# pKi: −log10 of the molar value.
# How the values were obtained:
# [1] = biological target: T1, PPAR-γ (Homo sapiens, UniProt P37231); test: Scintillation Proximity Assay (SPA), displacement of 3H labeled darglitazone; format: binding; conditions: 3H darglitazone displacement, read-out: PPAR-gamma Ki
# T1 sequence (P37231 1-505): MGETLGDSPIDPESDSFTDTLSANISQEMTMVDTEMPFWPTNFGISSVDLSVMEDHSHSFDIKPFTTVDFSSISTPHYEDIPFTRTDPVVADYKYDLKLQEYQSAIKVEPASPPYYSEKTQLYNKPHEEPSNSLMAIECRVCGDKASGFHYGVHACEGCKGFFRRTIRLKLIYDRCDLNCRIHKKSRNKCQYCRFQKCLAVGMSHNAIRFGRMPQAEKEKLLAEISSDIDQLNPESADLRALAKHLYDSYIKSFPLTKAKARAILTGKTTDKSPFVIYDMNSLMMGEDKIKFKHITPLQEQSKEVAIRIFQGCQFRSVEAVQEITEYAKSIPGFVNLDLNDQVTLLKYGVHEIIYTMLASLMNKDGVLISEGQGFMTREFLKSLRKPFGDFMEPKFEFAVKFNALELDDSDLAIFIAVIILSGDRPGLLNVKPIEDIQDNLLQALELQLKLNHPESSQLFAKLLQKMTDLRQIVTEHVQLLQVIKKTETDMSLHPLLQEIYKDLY
# From the text: (§1) Scintillatian Proximity Assay (SPA) Assays
# (§2) In the SPA assay, 3H labeled darglitazone (for PPAR-γ) or GW2331 (for PPAR-α) is bound to the PPAR protein captured on SPA polylysine beads and generates radioactive count signal that can be detected by TopCounts (Packard). The PPAR-bound 3H labeled ligand can be displaced by an unlabeled compound. The Ki of the compound can be then determined by the extent of displacement at various compound concentrations. Reagents: • SPA polylysine beads, which can be purchased from Amersham Bioscience. • H labeled Darglitazone for PPAR-γ. • H labeled GW2331 for PPAR-α. • PPAR proteins. • Buffer—PBS, 10% glycerol, 14 mM beta-mercaptoethanol.
# [2] = biological target: T2, PPAR-α (Homo sapiens, UniProt Q07869); test: Scintillation Proximity Assay (SPA), displacement of 3H labeled GW2331; format: binding; conditions: 3H GW2331 displacement, read-out: PPAR-alpha Ki
# T2 sequence (Q07869 1-468): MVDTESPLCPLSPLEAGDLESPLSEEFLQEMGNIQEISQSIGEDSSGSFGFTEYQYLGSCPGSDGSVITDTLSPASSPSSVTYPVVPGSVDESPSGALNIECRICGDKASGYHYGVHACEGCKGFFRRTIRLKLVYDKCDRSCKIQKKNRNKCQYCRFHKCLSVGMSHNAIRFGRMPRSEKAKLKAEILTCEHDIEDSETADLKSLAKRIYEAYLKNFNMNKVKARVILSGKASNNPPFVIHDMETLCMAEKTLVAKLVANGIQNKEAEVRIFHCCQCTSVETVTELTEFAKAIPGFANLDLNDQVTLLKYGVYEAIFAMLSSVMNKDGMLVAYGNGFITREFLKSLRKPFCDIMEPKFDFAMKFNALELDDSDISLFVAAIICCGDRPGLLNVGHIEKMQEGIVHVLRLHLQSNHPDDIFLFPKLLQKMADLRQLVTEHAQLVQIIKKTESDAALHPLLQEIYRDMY
# From the text: as §1, §2
pKi [1],pKi [2],SMILES
5.21,5.29,CCS(=O)(=O)Oc1ccc(CCOc2ccc(CC(OC)C(=O)O)cn2)cc1 [Example D-11]
7.17,7.80,Cc1ccc(-c2nc(CCOc3ccc(CC4(C(=O)O)CCC4)cc3)c(C)o2)cc1 [Example C-26]
8.22,6.92,COc1cccc(-c2nc(CCOc3ccc(CC4(C(=O)O)CCC4)cc3)c(C)o2)c1 [Example C-29]
7.68,7.19,COc1ccc(-c2nc(CCOc3ccc(CC4(C(=O)O)CCCO4)cc3)c(C)o2)cc1 (stereo not drawn) [Example C-84]

# Further lines, the compound ahead of its results:
SMILES,pKi [1],pKi [2]
Cc1oc(-c2ccccc2)nc1COC(=O)NCc1cccc(OC(C)(C)C(=O)O)c1 [Example B-06],6.43,6.89
CCOC(Cc1cccc(CNC(=O)OCCc2nc(-c3ccccc3)oc2C)c1)C(=O)O (stereo not drawn) [Example B-24],5.80,6.00
